Assay results as given in patent publication US10106508B2, “Quinazoline heterocyclic compound as EGFR kinase inhibitor and preparation and application thereof” (BEIJING SCITECH-MQ PHARMACEUTICALS LIMITED, priority 2015, dated 2018).

What was measured:
A549 cells = assay: Anti-proliferative activity, cell-counting kit-8 assay, A549; type: cell-based; conditions: CCK-8
Experimental: (§1) Cell Assay of EGFR Activity
(§2) The anti-proliferative activity was determined using cell-counting kit-8 assay (Dojindo, Japan). H358 and A549 cells lines were seeded at a density of 8000 cells/well and 3000 cells/well respectively in 96-well microtiter plates and were incubated at 37° C. overnight in a humidified incubator containing 5% CO2. Cells were dosed with compounds at final concentrations ranging from 0.025 to 80 μM in each well of the plate. Three groups were set up, including compound group to be tested, blank control group, positive control group (gefitinib).
(§3) The 96-well plate was incubated in cell incubator for 72 hours. The culture fluid was then removed and 100 μl/well of PBS buffer was added. 10 μl/well of CCK-8 solution was added and the assay plate was incubated in the cell incubator for 1 hour. Cell survival was determined by measuring the absorbance at 470 nm using a microplate reader. A calibration curve was prepared using the average data of the 4 wells for each concentration that contain the number of viable cells to determine the IC50 of the target compounds.

EGFR (T790M) = EGFR (T790M) (Homo sapiens (Human), UniProt P00533, T790M); assay: Kinase-Glo luminescent kinase assay, EGFR tyrosine kinase inhibitory activity (T790M); type: biochemical
Experimental: (§4) Determination of the Compound Inhibitory Activity Against EGFR Kinase
(§5) The inhibitory activity of compounds in formula (I) and (II) were determined using Kinase-Glo luminescent kinase assay. The receptor tyrosine kinase EGFR was tested and Gefitinib, a known EGFR inhibitor, was chosen as the positive control compound. The method is detailed below:
(§6) The sample compounds were dissolved in DMSO and diluted it to 500 μM concentration with DMSO and transferred to a dose plate. The compounds were serially diluted with DMSO in 5 fold concentration. Then each concentration was diluted 10-fold with the reaction buffer to get a 10× final concentration. Transfer the compounds with concentrations ranging from 0.003 μM to 50 μM to EGFR assay plate to determine their kinase activity with a dose of 1 μL/well.
(§7) The positive control compound Gifitinib was dissolved in DMSO as 10 mM stock solution and diluted it to 100 μM concentration with DMSO. The control compound was serially diluted with DMSO in 5 fold concentration. Then each concentration was diluted 10-fold with the reaction buffer to get a 10× final concentration.
(§8) For the HPE (hundred percent effect: No kinase and no compound, but containing ATP, substrate and 1% DMSO) and ZPE (zero percent effect: No compound but containing kinase, ATP, substrate and 1% DMSO) wells, dilute 2 μL DMSO 10-fold with reaction buffer to obtain 10% DMSO solution. Then transfer it to the assay plat, 1 μL/well. The positive control wells contain kinase, ATP, substrate and positive control compound in different concentrations. The sample compound wells contain kinase, ATP, substrate and the compounds to be tested in different concentrations.
(§9) Preparation of the reagents in need: 4×ATP: dilute ATP 4 times with assay buffer to obtain a working solution; 4× substrate: dilute Poly ([…]: tyrosine) 4 times with assay buffer to obtain a working solution; 2.5×EGFR kinase: dilute EGFR kinase 2.5 times with assay buffer to obtain a working solution.
(§10) Kinase reaction: Add 10× compounds to the assay plate in a 384-well plate layout, 1 μL/well. For the HPE and ZPE wells, equal volume (1 μL/well) of 10% DMSO was added to the 384-well assay plate; Add 2.5×EGFR kinase into the assay plate in 384-well plate layout, 4 μL/well. For HPE and ZPE wells, an equal volume (4 μL/well) of assay buffer was added to the 384-well assay plate; Centrifuge the assay plate with 1000 rpm for 1 min to mix them; Pre-incubate the assay plate for 30 min at 30° C.; Mix equal volume of 4×ATP and 4× substrate to obtain 2×ATP-substrate mixture which serves as a reaction mixture for the determination of EGFR activity; Add 2×ATP-substrate mixture to the assay plate, 5 μL/well; Centrifuge the assay plate at 1000 rpm for 1 min to mix them; Incubate the assay plate for one hour at 30° C.; Add Kinase glo plus was to each well (10 μL/well), and then incubated the assay plate for 20 min at 27° C.; Read luminescence signal with Envision plate reader.

H358 cells = assay: Anti-proliferative activity, cell-counting kit-8 assay, H358; type: cell-based; conditions: CCK-8
Experimental: as §1, §2, §3

EGFR (WT) = EGFR (WT) (Homo sapiens (Human), UniProt P00533); assay: Kinase-Glo luminescent kinase assay, EGFR tyrosine kinase inhibitory activity (WT); type: biochemical; conditions: EGFR wild type
Experimental: as §4, §5, §6, §7, §8, §9, §10

[1] = in vivo; cited from earlier work
remaining 81 kinase = conditions: screening of 85 kinases; selectively inhibits EGFR and 3 other mutants; cited from earlier work
EGFR = EGFR (Homo sapiens (Human), UniProt P00533); conditions: molecular level; read-out: IC50 against EGFR activity; cited from earlier work
Sequence of EGFR (P00533 25-1210): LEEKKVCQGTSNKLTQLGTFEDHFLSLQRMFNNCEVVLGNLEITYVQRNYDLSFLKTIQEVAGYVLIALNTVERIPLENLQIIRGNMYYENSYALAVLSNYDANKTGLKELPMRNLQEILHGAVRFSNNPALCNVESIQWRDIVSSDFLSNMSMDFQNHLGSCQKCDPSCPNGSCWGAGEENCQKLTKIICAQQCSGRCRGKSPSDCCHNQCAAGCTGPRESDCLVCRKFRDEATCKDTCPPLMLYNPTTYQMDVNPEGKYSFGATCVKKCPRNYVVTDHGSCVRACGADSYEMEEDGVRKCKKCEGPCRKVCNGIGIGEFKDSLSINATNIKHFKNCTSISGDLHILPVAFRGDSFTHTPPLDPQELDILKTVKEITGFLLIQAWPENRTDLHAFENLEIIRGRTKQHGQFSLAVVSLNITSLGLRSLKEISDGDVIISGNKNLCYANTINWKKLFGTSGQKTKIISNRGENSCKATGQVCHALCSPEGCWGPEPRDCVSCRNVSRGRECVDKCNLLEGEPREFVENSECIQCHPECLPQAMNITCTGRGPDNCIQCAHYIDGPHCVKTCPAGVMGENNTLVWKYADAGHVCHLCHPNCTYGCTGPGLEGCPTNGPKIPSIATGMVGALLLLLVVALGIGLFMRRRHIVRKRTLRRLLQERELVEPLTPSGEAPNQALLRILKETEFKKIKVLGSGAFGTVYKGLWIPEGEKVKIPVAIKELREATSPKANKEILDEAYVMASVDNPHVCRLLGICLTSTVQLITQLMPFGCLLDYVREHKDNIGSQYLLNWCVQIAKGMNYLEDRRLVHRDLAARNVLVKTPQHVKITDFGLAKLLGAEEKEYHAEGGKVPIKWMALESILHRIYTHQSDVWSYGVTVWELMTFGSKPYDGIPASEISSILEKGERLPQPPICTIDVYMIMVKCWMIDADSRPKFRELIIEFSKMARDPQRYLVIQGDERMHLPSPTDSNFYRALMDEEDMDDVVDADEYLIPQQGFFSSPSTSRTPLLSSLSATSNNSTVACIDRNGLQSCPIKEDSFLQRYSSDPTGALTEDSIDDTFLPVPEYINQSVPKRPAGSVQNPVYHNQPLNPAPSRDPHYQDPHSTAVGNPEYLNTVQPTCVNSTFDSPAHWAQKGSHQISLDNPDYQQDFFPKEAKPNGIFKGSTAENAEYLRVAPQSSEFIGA

Sequence of EGFR (WT) (P00533 25-1210): as above
Sequence of EGFR (T790M) (P00533 25-1210 T790M): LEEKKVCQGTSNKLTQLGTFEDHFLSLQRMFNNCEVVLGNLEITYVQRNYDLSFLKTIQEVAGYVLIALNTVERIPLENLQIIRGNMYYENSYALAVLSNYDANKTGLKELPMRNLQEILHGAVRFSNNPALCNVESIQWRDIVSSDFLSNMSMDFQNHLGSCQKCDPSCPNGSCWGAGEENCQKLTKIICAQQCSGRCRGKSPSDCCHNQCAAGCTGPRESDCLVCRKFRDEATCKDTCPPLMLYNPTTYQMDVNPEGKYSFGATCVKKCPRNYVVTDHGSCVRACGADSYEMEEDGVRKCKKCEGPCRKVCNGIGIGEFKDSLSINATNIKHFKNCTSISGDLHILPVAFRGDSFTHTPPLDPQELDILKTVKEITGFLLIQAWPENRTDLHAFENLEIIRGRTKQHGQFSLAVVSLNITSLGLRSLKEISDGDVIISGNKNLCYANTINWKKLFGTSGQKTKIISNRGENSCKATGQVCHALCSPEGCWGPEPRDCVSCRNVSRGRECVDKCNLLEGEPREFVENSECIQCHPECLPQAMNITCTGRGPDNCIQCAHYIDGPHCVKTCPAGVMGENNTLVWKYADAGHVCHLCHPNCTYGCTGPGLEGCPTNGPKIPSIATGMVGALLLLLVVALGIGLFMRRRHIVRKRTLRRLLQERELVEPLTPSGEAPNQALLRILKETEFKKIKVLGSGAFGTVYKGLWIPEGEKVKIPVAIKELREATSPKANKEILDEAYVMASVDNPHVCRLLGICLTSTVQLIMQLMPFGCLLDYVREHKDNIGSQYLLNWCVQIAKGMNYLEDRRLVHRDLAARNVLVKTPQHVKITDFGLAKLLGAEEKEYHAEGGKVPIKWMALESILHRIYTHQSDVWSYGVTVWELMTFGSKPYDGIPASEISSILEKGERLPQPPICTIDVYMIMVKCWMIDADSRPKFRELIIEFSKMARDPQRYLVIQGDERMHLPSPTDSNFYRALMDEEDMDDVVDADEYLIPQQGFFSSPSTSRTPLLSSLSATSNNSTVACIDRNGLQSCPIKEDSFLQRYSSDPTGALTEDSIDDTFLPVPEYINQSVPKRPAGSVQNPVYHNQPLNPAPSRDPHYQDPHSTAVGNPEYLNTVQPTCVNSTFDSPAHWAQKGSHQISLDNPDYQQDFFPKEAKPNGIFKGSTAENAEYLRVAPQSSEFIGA

Structure (SMILES) | IC50 (A549 cells; Homo sapiens, A549, 72 h) [µM] | IC50 (EGFR (T790M)) [nM] | IC50 (H358 cells; Homo sapiens, NCI-H358, 72 h) [µM] | IC50 (EGFR (WT)) [nM] | IC50 (A549 cells; 72 hours) [µM] | IC50 (H358 cells; 72 hours) [µM] | oral bioavailability [1] [%] | effect on the remaining 81 kinase (remaining 81 kinase) | IC50 (EGFR) [µM]
CC(C)Oc1cc2ncnc(Nc3ccc(F)c(Cl)c3)c2c2c1OCCO2 [Compound I-7, N-(3-Chloro-4-fluorophenyl)-5-isopropoxy-2,3-dihydro-[1,4]dioxino[2,3-f]quinazolin-10-amine] | 11.6 | < 50 | 6.92 | < 50 | – | – | – | – | –
C#Cc1cccc(Nc2ncnc3cc(OC(C)C)c4c(c23)OCCO4)c1 [Compound I-8, N-(3-Ethynylphenyl)-5-isopropoxy-2,3-dihydro-[1,4]dioxino[2,3-f]quinazolin-10-amine] | 6.08 | < 50 | 5.54 | < 50 | – | – | – | – | –
CCOC(C)Oc1cc2ncnc(Nc3ccc(F)c([N+](=O)[O-])c3)c2c2c1OCCO2 (stereo not drawn) [Compound I-16, 5-(1-Ethoxyethoxy)-N-(4-fluoro-3-nitrophenyl)-2,3-dihydro-[1,4]dioxino[2,3-f]quinazolin-10-amine] | 17.5 | < 300 | 17.5 | < 300 | – | – | – | – | –
C#Cc1cccc(Nc2ncnc3cc(OC4CCOCC4)c4c(c23)OCCO4)c1 [Compound I-21, N-(3-Ethynylphenyl)-5-(tetrahydro-2H-pyran-4-yloxy)-2,3-dihydro-[1,4]dioxino[2,3-f]quinazolin-10-amine] | 6.42 | < 1000 | 1.47 | < 100 | – | – | – | – | –
Fc1cc(Nc2ncnc3cc(OC4CCOCC4)c4c(c23)OCCO4)ccc1Cl [Compound I-22, N-(4-Chloro-3-fluorophenyl)-5-(tetrahydro-2H-pyran-4-yloxy)-2,3-dihydro-[1,4]dioxino[2,3-f]-quinazolin-10-amine] | > 20 | < 1000 | > 20 | < 100 | – | – | – | – | –
Fc1cc(Nc2ncnc3cc(OC4CCOC4)c4c(c23)OCCO4)ccc1Cl (stereo not drawn) [Compound I-23, N-(4-Chloro-3-fluorophenyl)-5-(tetrahydrofuran-3-yloxy)-2,3-dihydro-[1,4]dioxino[2,3-f]quinazolin-10-amine] | 15.1 | < 100 | 13 | < 50 | – | – | – | – | –
C#Cc1cccc(Nc2ncnc3cc(OC4CCOC4)c4c(c23)OCCO4)c1 (stereo not drawn) [Compound I-24, N-(3-Ethynylphenyl)-5-(tetrahydrofuran-3-yloxy)-23-dihydro-[1,4]dioxino[2,3-f]quinazolin-10-amine] | 9.69 | < 300 | 8.58 | < 50 | – | – | – | – | –
COCC(C)Oc1cc2ncnc(Nc3ccc(F)c(Cl)c3)c2c2c1OCCO2 (stereo not drawn) [Compound I-25, N-(3-Chloro-4-fluorophenyl)-5-(1-methoxypropan-2-yloxy)-2,3-dihydro-[1,4]dioxino[2,3-H]quinazolin-10-amine] | 10.4 | – | 10.6 | – | – | – | – | – | –
COCCOc1cc2ncnc(Nc3ccc(F)c(Cl)c3)c2c2c1OCCO2 [Compound I-30, N-(3-Chloro-4-fluorophenyl)-5-(2-methoxyethoxy)-2,3-dihydro-[1,4]dioxino[2,3-f]quinazolin-10-amine] | 13.9 | < 50 | 5.93 | < 50 | – | – | – | – | –
COCCOc1cc2ncnc(Nc3cccc(OC)c3)c2c2c1OCCO2 [Compound I-33, 5-(2-Methoxyethoxy)-N-(3-methoxyphenyl)-2,3-dihydro-[1,4]dioxino[2,3-f]quinazolin-10-amine] | 12.1 | < 1000 | 9.64 | < 200 | – | – | – | – | –
C#Cc1cccc(Nc2ncnc3cc(OCC)c4c(c23)OCCO4)c1 [Compound I-35, 5-Ethoxy-N-(3-ethynylphenyl)-2,3-dihydro-[1,4]dioxino[2,3-f]quinazolin-10-amine] | 10.5 | < 50 | 8.89 | < 50 | – | – | – | – | –
CCOc1cc2ncnc(Nc3cccc(OC)c3)c2c2c1OCCO2 [Compound I-36, 5-Ethoxy-N-(3-methoxyphenyl)-2,3-dihydro-[1,4]dioxino[2,3-f]quinazolin-10-amine] | 12 | < 50 | 7.41 | < 50 | – | – | – | – | –
CCOc1cc2ncnc(Nc3ccc(C)c(Cl)c3)c2c2c1OCCO2 [Compound I-37, N-(3-Chloro-4-methylphenyl)-5-ethoxy-2,3-dihydro-[1,4]dioxino[2,3-f]quinazolin-10-amine] | 12.1 | < 50 | 11.6 | < 50 | – | – | – | – | –
CCOc1cc2ncnc(Nc3ccc(C)cc3)c2c2c1OCCO2 [Compound I-39, 5-Ethoxy-N-p-tolyl-2,3-dihydro-[1,4]dioxino[2,3-f]quinazolin-10-amine] | 10.2 | < 100 | 6.1 | < 50 | – | – | – | – | –
C#Cc1cccc(Nc2ncnc3cc(OCC4CCCO4)c4c(c23)OCCO4)c1 (stereo not drawn) [Compound I-41, N-(3-Ethynylphenyl)-5-((tetrahydrofuran-2-yl)methoxy)-2,3-dihydro-[1,4]dioxino[2,3-f]quinazolin-10-amine] | 11.5 | < 100 | 9.51 | < 50 | – | – | – | – | –
O=C1COc2cc3ncnc(Nc4ccc(F)c(Cl)c4)c3cc2N1CCCN1CCOCC1 [II-1, 4-((3-Chloro-4-fluorophenyl)amino)-6-(3-morpholinopropyl)-6H-[1,4]oxazino[3,2-g]quinazolin-7(8H)-one] | – | < 300 | – | < 50 | 7.51 | 13.5 | – | – | –
O=C1COc2cc3ncnc(Nc4ccc(F)c(Cl)c4)c3cc2N1CCCN1CCOCC1 [II-2, 4-((3-Chloro-4-fluorophenyl)amino)-6-(3-morpholinopropyl)-6H-[1,4]oxazino[3,2-g]quinazolin-7(8H)-one] | 5.58 | < 1000 | 13.5 | < 200 | – | – | – | – | –
C#Cc1cccc(Nc2ncnc3cc(OCCOC)c(OCCOC)cc23)c1 [erlotinib, Erlotinib] | – | – | – | – | – | – | 80 | – | –
C#Cc1cccc(Nc2ncnc3cc4c(cc23)OCCOCCOCCO4)c1 [icotinib, Icotinib] | – | – | – | – | – | – | – | no significant effect | 5
